ChEMBL document CHEMBL3098108, “Design, synthesis and evaluation of dual pharmacology β2-adrenoceptor agonists and PDE4 inhibitors” (Bioorg Med Chem Lett, 2014)
Active and inactive are the calls of the source. The calls are words filed in the database; no cut-off is given here.

Tests used:
[1] = molecular target: 3',5'-cyclic-AMP phosphodiesterase 4B (Homo sapiens, UniProt Q07343); assay: Inhibition of human recombinant PDE4B2 assessed as inhibition of cAMP hydrolysis by colorimetric assay
[2] = molecular target: Beta-2 adrenergic receptor (Cavia porcellus, UniProt Q8K4Z4); assay: Agonist activity at guinea pig trachea beta2-adrenergic receptor assessed as relaxation of histamine-induced tracheal ring contraction
Beta-2 adrenergic receptor, sequence (Q8K4Z4 whole entry): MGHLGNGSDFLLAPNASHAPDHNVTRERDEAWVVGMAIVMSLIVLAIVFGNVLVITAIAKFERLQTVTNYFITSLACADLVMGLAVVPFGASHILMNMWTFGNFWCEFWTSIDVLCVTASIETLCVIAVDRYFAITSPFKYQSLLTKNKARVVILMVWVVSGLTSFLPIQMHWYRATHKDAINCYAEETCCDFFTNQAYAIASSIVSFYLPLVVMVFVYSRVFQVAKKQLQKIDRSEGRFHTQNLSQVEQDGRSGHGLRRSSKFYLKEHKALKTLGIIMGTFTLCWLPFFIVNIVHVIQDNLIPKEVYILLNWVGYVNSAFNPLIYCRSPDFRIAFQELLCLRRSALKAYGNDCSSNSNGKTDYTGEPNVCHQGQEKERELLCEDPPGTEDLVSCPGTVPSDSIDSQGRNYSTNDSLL

[3] = molecular target: Beta-2 adrenergic receptor (Cavia porcellus) (UniProt Q8K4Z4); assay: Agonist activity at guinea pig trachea beta2-adrenergic receptor assessed as relaxation of histamine-induced tracheal ring contraction in presence of ICI-118551
Beta-2 adrenergic receptor (Cavia porcellus), sequence (Q8K4Z4 whole entry, looked up): as the sequence (Q8K4Z4 whole entry) above

3',5'-cyclic-AMP phosphodiesterase 4B, sequence (Q07343 whole entry): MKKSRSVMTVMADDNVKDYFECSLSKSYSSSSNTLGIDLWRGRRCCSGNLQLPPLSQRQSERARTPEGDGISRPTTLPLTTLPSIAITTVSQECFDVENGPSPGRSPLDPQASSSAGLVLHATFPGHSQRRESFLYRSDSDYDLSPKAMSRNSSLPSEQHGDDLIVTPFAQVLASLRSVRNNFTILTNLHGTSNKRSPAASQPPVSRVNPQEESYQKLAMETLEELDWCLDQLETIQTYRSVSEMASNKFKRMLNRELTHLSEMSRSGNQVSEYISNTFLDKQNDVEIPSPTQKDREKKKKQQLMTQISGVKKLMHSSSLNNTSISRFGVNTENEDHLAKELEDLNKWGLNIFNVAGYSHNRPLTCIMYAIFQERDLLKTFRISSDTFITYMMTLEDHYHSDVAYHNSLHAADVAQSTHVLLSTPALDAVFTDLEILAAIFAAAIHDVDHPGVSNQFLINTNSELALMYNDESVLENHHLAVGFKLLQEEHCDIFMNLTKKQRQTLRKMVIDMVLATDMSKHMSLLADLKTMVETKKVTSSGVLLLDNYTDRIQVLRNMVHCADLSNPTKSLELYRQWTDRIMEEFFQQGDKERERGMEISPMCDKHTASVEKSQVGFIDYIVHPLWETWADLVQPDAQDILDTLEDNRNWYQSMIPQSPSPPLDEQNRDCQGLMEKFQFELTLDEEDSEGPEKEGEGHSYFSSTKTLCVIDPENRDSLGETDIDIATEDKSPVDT

Compound	IC50 [1] [nM]	EC50 [2] [nM]	Activity [3]
COc1ccc(C2=NN(CCCCOc3ccc(CC(C)NCC(O)c4ccc(O)c(NC=O)c4)cc3)C(=O)C3CCCCC23)cc1OC (centres undefined)	117	10.3	
COc1ccc(C2=NN(CCCCCOc3ccc(CC(C)NCC(O)c4ccc(O)c(NC=O)c4)cc3)C(=O)C3CCCCC23)cc1OC (centres undefined)	118	12.6	
COc1ccc(C2=NN(CCCCCCOc3ccc(C[C@@H](C)NC[C@H](O)c4ccc(O)c(NC=O)c4)cc3)C(=O)C3CCCCC23)cc1OC (some centres undefined)	92	1.05	Active
COc1ccc(C2=NN(CCCCCCOc3ccc(CC(C)NCC(O)c4ccc(O)c(NC=O)c4)cc3)C(=O)C3CCCCC23)cc1OC (racemic)	104	5.02	
